Experimental data published in ChEMBL document CHEMBL1129891, “Synthesis and cytotoxic activity of alkylidene- and alkyl-substituted camptothecins” (Bioorg Med Chem Lett, 1997).

Legend:
[1] = test system: L1210; experiment: Concentration required to inhibit 50% of cell growth in L1210 murine leukemia cell line after 48 hr continuous treatment; format: functional, cell-based; details: Mus musculus, L1210, 48 h
[2] = target: T1, DNA topoisomerase 1 (Homo sapiens, UniProt P11387); experiment: Concentration required to inhibit 50% relaxation of 250 ng of SV40 DNA obtained with 0.5 I.U topoisomerase I at 37 degrees C for 30 min
T1 sequence (P11387 whole entry): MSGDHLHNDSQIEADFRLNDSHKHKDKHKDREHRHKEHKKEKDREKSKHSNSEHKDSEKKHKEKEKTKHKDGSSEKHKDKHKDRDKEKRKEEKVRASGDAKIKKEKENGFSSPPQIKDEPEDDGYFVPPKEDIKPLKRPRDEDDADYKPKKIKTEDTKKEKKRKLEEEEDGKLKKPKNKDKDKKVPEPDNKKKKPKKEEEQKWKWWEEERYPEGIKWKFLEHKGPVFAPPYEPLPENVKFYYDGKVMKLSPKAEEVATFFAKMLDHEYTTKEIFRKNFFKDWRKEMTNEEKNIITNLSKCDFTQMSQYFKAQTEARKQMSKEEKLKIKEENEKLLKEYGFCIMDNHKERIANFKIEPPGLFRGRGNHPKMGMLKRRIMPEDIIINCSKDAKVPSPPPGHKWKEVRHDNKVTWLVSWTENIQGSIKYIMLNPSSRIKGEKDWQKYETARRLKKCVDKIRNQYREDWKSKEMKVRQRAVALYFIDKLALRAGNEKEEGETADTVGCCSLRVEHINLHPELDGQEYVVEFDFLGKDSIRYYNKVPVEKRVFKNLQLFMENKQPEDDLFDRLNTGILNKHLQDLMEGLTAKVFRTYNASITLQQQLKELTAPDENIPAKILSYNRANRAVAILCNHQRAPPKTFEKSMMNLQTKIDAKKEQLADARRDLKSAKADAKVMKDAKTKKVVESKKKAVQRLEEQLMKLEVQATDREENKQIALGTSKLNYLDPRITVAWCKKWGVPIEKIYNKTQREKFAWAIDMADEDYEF

CC[C@@]1(O)C(=O)OCc2c1cc1n(c2=O)Cc2cc3c(CC(NC(C)=O)C(=O)OC)cccc3nc2-1 (some centres undefined)
IC50 [1]: 0.183 µM | IC50 [2]: 11.3 µM

CC[C@@]1(O)C(=O)OCc2c1cc1n(c2=O)Cc2cc3cc(/C=C/C(=O)OC)ccc3nc2-1
IC50 [1]: 0.0623 µM | IC50 [2]: > 100 µM

CC[C@@]1(O)C(=O)OCc2c1cc1n(c2=O)Cc2cc3c(/C=C/C(N)=O)cccc3nc2-1
IC50 [1]: 0.121 µM | IC50 [2]: 3.2 µM

C=Cc1cccc2nc3c(cc12)Cn1c-3cc2c(c1=O)COC(=O)[C@]2(O)CC
IC50 [1]: 0.0075 µM | IC50 [2]: 4.2 µM

CC[C@@]1(O)C(=O)OCc2c1cc1n(c2=O)Cc2cc3c(CCc4ccccc4)cccc3nc2-1
IC50 [1]: 0.0163 µM | IC50 [2]: > 100 µM

CC[C@@]1(O)C(=O)OCc2c1cc1n(c2=O)Cc2cc3c(/C=C/c4ccccc4)cccc3nc2-1
IC50 [1]: 0.0158 µM | IC50 [2]: > 100 µM

CC[C@@]1(O)C(=O)OCc2c1cc1n(c2=O)Cc2cc3c(N)cccc3nc2-1 [9-AMINOCAMPTOTHECIN]
IC50 [2]: 1.8 µM

CC[C@@]1(O)C(=O)OCc2c1cc1n(c2=O)Cc2cc3c(/C=C/C(=O)OC)cccc3nc2-1
IC50 [1]: 0.0076 µM | IC50 [2]: 6.7 µM

CC[C@@]1(O)C(=O)OCc2c1cc1n(c2=O)Cc2cc3c(CCC(=O)OC)cccc3nc2-1
IC50 [1]: 0.0062 µM | IC50 [2]: 41.8 µM

CC[C@@]1(O)C(=O)OCc2c1cc1n(c2=O)Cc2cc3c(/C=C(\NC(C)=O)C(=O)OC)cccc3nc2-1
IC50 [1]: 1.18 µM | IC50 [2]: 31.9 µM
